Assay results published in patent publication US8119692B2 (priority 2007, dated 2012).

What follows are molecules tested against Lethal factor protease (Bacillus anthracis, UniProt P15917) (assay: biochemical). Conditions: LF (FRET) Ki^app.
Sequence of Lethal factor protease (P15917 34-809 limits assumed): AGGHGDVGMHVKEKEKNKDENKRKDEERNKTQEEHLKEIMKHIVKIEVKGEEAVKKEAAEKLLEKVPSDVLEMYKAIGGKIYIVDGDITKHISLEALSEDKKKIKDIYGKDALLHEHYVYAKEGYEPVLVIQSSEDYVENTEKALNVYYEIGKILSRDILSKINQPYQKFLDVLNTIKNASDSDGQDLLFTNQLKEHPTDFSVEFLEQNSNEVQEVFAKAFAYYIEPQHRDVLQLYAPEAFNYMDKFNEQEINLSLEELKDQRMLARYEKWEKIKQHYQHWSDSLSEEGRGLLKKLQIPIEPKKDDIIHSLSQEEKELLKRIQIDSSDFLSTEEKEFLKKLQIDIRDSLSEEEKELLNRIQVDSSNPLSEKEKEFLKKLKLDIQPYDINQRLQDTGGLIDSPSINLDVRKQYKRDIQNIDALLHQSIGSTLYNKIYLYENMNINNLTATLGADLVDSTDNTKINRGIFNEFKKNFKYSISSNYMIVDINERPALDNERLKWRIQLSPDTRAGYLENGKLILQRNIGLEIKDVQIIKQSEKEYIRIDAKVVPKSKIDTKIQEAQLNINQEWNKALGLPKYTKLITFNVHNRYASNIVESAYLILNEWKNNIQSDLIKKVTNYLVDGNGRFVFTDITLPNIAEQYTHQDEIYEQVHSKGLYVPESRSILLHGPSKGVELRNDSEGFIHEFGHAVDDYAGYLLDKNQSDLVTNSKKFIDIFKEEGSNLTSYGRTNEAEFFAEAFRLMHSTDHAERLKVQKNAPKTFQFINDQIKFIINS

| Structure (SMILES) | Ki |
| --- | --- |
| COC(CCC(=O)NO)c1ccc(F)c(C)c1 (centres unmarked) [Compound 167232, 4-(4-fluoro-3-methylphenyl)-N-hydroxy-4-methoxybutanamide] | 8.9 µM |
| CO[C@H](C[C@H](CCCCNCC1CCCCC1)C(=O)NO)c1ccc(F)cc1 [Compound 168227, (S)-6-(cyclohexylmethylamino)-2-((R)-2-(4-fluorophenyl)-2-methoxyethyl)-N-hydroxyhexanamide] | 0.69 µM |
| CCC[C@H](C[C@@H](OC)c1ccc(F)c(C)c1)C(=O)NO [Compound 167674, (2R)-2-((2R)-2-(4-fluoro-3-methylphenyl)-2-methoxyethyl)-N-hydroxypentanamide] | 24 µM |
| CO[C@H](C[C@H](CCN(C)CCCc1ccccc1)C(=O)NO)c1ccc(F)cc1 [Compound 167953, (2S,4R)-4-(4-fluorophenyl)-N-hydroxy-4-methoxy-2-(2-(methyl(3-phenylpropyl)amino)ethyl)butanamide] | 0.23 µM |
| COC(CCC(=O)NO)c1ccc(C(F)(F)F)cc1 (centres unmarked) [Compound 167511, N-hydroxy-4-methoxy-4-(4-(trifluoromethyl)phenyl)butanamide] | 240 µM |
| CO[C@H](C[C@H](CCCCNc1ccc(F)cc1)C(=O)NO)c1ccc(F)cc1 [Compound 168229] | 2.8 µM |
| COC(CCC(=O)NO)c1ccc(F)cc1 (centres unmarked) [Compound 167157, 4-(4-fluorophenyl)-N-hydroxy-4-methoxybutanamide] | 11.7 µM |
| COc1cccc(C(CCC(=O)NO)OC)c1 (centres unmarked) [Compound 167458, N-hydroxy-4-methoxy-4-(3-methoxyphenyl)butanamide] | 276 µM |
| COC(CCC(=O)NO)c1cccc(C)c1 (centres unmarked) [Compound 167491, N-hydroxy-4-methoxy-4-m-tolylbutanamide] | 176 µM |
| CCCC[C@H](C[C@@H](OC)c1ccc(F)cc1)C(=O)NO [Compound 167353, (2R)-2-((2R)-2-(4-fluorophenyl)-2-methoxyethyl)-N-hydroxyhexanamide] | 5.8 µM |
| CO[C@H](C[C@H](CCN1CCN(Cc2ccc(F)c(C)c2)CC1)C(=O)NO)c1ccc(F)cc1 [Compound 167960, (2S,4R)-2-(2-(4-(4-fluoro-3-methylbenzyl)piperazin-1-yl)ethyl)-4-(4-fluorophenyl)-N-hydroxy-4-methoxybutanamide] | 0.97 µM |
| CO[C@H](C[C@H](CCN(C)Cc1cccc(-c2ccc(F)c(C)c2)c1)C(=O)NO)c1ccc(F)cc1 [Compound 168003, (2S,4R)-2-(2-(((4′-fluoro-3′-methylbiphenyl-3-yl)methyl)(methyl)amino)ethyl)-4-(4-fluorophenyl)-N-hydroxy-4-methoxybutanamide] | 2.3 µM |
| CO[C@H](C[C@H](CCCCNCCCc1ccc(F)cc1)C(=O)NO)c1ccc(F)cc1 [Compound 168222, (S)-2-((R)-2-(4-fluorophenyl)-2-methoxyethyl)-6-(3-(4-fluorophenyl)propylamino)-N-hydroxyhexanamide] | 0.17 µM |
| COC(CC(Cc1ccccc1)C(=O)NO)c1ccc(F)cc1 (centres unmarked) [Compound 167286, 2-Benzyl-4-(4-fluorophenyl)-N-hydroxy-4-methoxy-butyramide] | 168 µM |
| CO[C@H](C[C@H](CCN1CCC[C@H](CO)C1)C(=O)NO)c1ccc(F)cc1 [Compound 168039, (2S,4R)-4-(4-fluorophenyl)-N-hydroxy-2-(2-((S)-3-(hydroxymethyl)piperidin-1-yl)ethyl)-4-methoxybutanamide] | 0.58 µM |
| COC(CCC(=O)NO)c1ccc(C)cc1C (centres unmarked) [Compound 167541, 4-(2,4-dimethylphenyl)-N-hydroxy-4-methoxybutanamide] | 134 µM |

| Structure (SMILES) | Ki |
| --- | --- |
| CO[C@H](C[C@H](CCN(Cc1ccccc1)C(C)C)C(=O)NO)c1ccc(F)cc1 [Compound 167784, (2S,4R)-2-(2-(benzyl(isopropyl)amino)ethyl)-4-(4-fluorophenyl)-N-hydroxy-4-methoxybutanamide] | 14 µM |
| CO[C@H](C[C@H](CCN1CCC[C@H](CN2CCCCC2)C1)C(=O)NO)c1ccc(F)cc1 [Compound 168044, (2S,4R)-4-(4-fluorophenyl)-N-hydroxy-4-methoxy-2-(2-((R)-3-(piperidin-1-ylmethyl)piperidin-1-yl)ethyl)butanamide] | 1.92 µM |
| CO[C@@H](C[C@H](CCCc1ccccc1)C(=O)NO)c1ccc(F)cc1 [Compound 167408] | > 300 µM |
| COC(CCC(=O)NO)c1cccc(C(F)(F)F)c1 (centres unmarked) [Compound 167492, N-hydroxy-4-methoxy-4-(3-(trifluoromethyl)phenyl)butanamide] | > 300 µM |
| C=CC[C@@H](C[C@@H](OC)c1ccc(F)cc1)C(=O)NO [Compound 167434, (2S)-2-((2R)-2-(4-fluorophenyl)-2-methoxyethyl)-N-hydroxypent-4-enamide] | 1.16 µM |
| CSC(CCC(=O)NO)c1ccc(F)cc1 (racemic) [Compound 167366, 4-(4-Fluoro-phenyl)-N-hydroxy-4-methylsulfanyl-butyramide] | 10.9 µM |
| CO[C@H](C[C@H](CCCCNCc1ccc(F)c(C)c1)C(=O)NO)c1ccc(F)cc1 [Compound 168136, (S)-6-(4-fluoro-3-methylbenzylamino)-2-((R)-2-(4-fluorophenyl)-2-methoxyethyl)-N-hydroxyhexanamide] | 0.19 µM |
| CO[C@H](C[C@H](CCN1CCN(CCc2ccccc2)CC1)C(=O)NO)c1ccc(F)cc1 [Compound 167958, (2S,4R)-4-(4-fluorophenyl)-N-hydroxy-4-methoxy-2-(2-(4-phenethylpiperazin-1-yl)ethyl)butanamide] | 2.4 µM |
| CO[C@H](C[C@H](CCCCNCc1ccc(Oc2ccccc2)cc1)C(=O)NO)c1ccc(F)cc1 [Compound 168224, (S)-2-((R)-2-(4-fluorophenyl)-2-methoxyethyl)-N-hydroxy-6-(4-phenoxybenzylamino)hexanamide] | 0.23 µM |
| COC(CCC(=O)NO)c1ccccc1C (centres unmarked) [Compound 167540, N-hydroxy-4-methoxy-4-o-tolylbutanamide] | 152 µM |
| CO[C@@H](C[C@@H](CCCc1ccccc1)C(=O)NO)c1ccc(F)cc1 [Compound 167341, (2R)-2-((2S)-2-(4-fluorophenyl)-2-methoxyethyl)-N-hydroxy-5-phenylpentanamide] | 18 µM |
| CO[C@H](C[C@H](CCN1CCN(c2ccccc2)CC1)C(=O)NO)c1ccc(F)cc1 [Compound 167986, (2S,4R)-4-(4-fluorophenyl)-N-hydroxy-4-methoxy-2-(2-(4-phenylpiperazin-1-yl)ethyl)butanamide] | 2.22 µM |
| CO[C@@H](CCC(=O)NO)c1ccc(F)cc1 [Compound 167205, (S)-4-(4-fluorophenyl)-N-hydroxy-4-methoxybutanamide] | 225 µM |
| CO[C@H](C[C@H](CCN(C)CCc1ccccc1)C(=O)NO)c1ccc(F)cc1 [Compound 167952, (2S,4R)-4-(4-fluorophenyl)-N-hydroxy-4-methoxy-2-(2-(methyl(phenethyl)amino)ethyl)butanamide] | 0.77 µM |
| CO[C@H](C[C@H](C/C=C/c1ccccc1)C(=O)NO)c1ccc(F)cc1 [Compound 167354] | 9.3 µM |
| CO[C@H](C[C@H](CCN1CCC(F)(F)CC1)C(=O)NO)c1ccc(F)cc1 [Compound 167884, (2S,4R)-2-(2-(4,4-difluoropiperidin-1-yl)ethyl)-4-(4-fluorophenyl)-N-hydroxy-4-methoxybutanamide] | 2.2 µM |
